Laboratory results taken from ChEMBL document CHEMBL1201862, “PubChem BioAssay data set” (2004).
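1) Cells in 96-well plates. 2) Compound, 48 h, 5 concentrations. 3) Linear interpolation between surrounding doses. 4) Unreached endpoint = highest concentration. The concentration for 50% growth inhibition is given as GI50.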 The source made the active and inactive calls. No stated cut-off is given here; in the data, active = GI50 up to about 1.1 µM and inactive = higher.

Tests used:
Assay in all cases: inhibition of tumour cell growth, NCI panel, 48 h
[1] = test system: BT-549
[2] = test system: EKVX
[3] = test system: MCF7
[4] = test system: OVCAR-5
[5] = test system: DLD-1
[6] = test system: HCT-15
[7] = test system: HOP-92
[8] = test system: MDA-N
[9] = test system: SF-268
[10] = test system: OVCAR-3
[11] = test system: A498
[12] = test system: U-251
[13] = test system: HCT-116
[14] = test system: CCRF-CEM
[15] = test system: TK-10
[16] = test system: COLO 205
[17] = test system: ACHN
[18] = test system: K562
[19] = test system: SK-MEL-2
[20] = test system: Hs-578T

Measured: GI50

CCOC(=O)c1c(CN2CCNCC2)nc2ccc(Cl)cc2c1-c1ccccc1
inactive: [1] 13.1 µM | [2] 9.38 µM | [3] 11 µM | [4] 19.5 µM | [5] 2.98 µM | [7] 1.17 µM | [8] 5.78 µM | [9] 5.6 µM | [10] 6.95 µM | [11] 7.26 µM | [12] 12.9 µM | [13] 3.07 µM | [14] 2.51 µM | [15] 5.07 µM | [16] 2.03 µM | [17] 5.45 µM | [18] 2.14 µM | [19] 1.79 µM
3.91 µM: [6]

CCOC(=O)c1ccc(C)c(/N=N/N(C)C)c1
inactive: [2] > 100 µM | [4] > 100 µM | [5] > 100 µM | [7] > 100 µM | [9] 82.8 µM | [10] > 100 µM | [11] > 100 µM | [12] > 100 µM | [13] > 100 µM | [14] > 100 µM | [15] > 100 µM | [16] > 100 µM | [17] > 100 µM | [18] > 100 µM | [19] > 100 µM
> 100 µM: [6]

CCC(C)OC(=O)C1C2CCC(O2)C1C(=O)O (configuration not stated)
> 41.1 µM: [6]
inactive: [2] > 100 µM | [4] > 100 µM | [5] > 51.4 µM | [7] > 66.4 µM | [9] > 51.2 µM | [10] > 100 µM | [11] > 47.3 µM | [12] > 44.3 µM | [13] > 40.6 µM | [14] > 100 µM | [15] > 100 µM | [16] > 44.8 µM | [17] > 72.4 µM | [18] > 100 µM | [19] > 100 µM

COC(=O)CC(=O)OC
inactive: [2] > 100 µM | [4] > 100 µM | [5] > 100 µM | [7] > 100 µM | [9] > 100 µM | [10] > 100 µM | [11] > 100 µM | [12] > 100 µM | [13] > 100 µM | [14] > 100 µM | [15] > 100 µM | [16] > 100 µM | [17] > 100 µM | [18] > 100 µM | [19] > 100 µM
> 100 µM: [6]

CC(C)NC(=O)OCc1c(CO)c2c(n1C)-c1ccccc1CC2
23.3 µM: [6]
inactive: [2] 69.2 µM | [3] 37.6 µM | [4] 80.7 µM | [5] 20.7 µM | [7] 18.2 µM | [9] 36.1 µM | [10] 22.4 µM | [11] 55.5 µM | [12] 27 µM | [13] 17.2 µM | [14] 12.6 µM | [16] 21 µM | [18] 15.2 µM | [19] 37.1 µM

O=[N+]([O-])c1cc(C(F)(F)F)cc2n[se]nc12
2.28 µM: [6]
active: [18] 0.822 µM
inactive: [1] 2.81 µM | [2] 5.3 µM | [3] 1.97 µM | [4] 13.1 µM | [5] 3.18 µM | [7] 2.26 µM | [8] 1.91 µM | [9] 5 µM | [10] 1.67 µM | [11] 16.8 µM | [20] 19.3 µM | [12] 15.1 µM | [13] 1.75 µM | [14] 1.68 µM | [15] 4.5 µM | [16] 2.03 µM | [17] 2.65 µM | [19] 8.38 µM
